# Laboratory results reported in patent US5968910A, “Compositions containing two or three inhibitors of different HIV reverse transcriptases” (priority 1994, dated 1999).
# Where two headings read alike, the source gives them in different places.
# Key:
# [1] = system: HIV-1/TIBO R82150 (100-Ile); conditions: background, Balzarini I/II; cited from earlier work
# [2] = system: HIV-1(IIIB) (WT); assay: microbe, parasite or virus in culture; assay type: cell-based; conditions: Human immunodeficiency virus 1, IIIB, CCRF-CEM
# Protocol: (§1) CEM cells were suspended at 250,000 cells per ml of culture medium and infected with wild-type HIV-I(IIIB) or mutant HIV-1 strains at 100 50% cell culture infective doses per ml. Then 100 μl of the infected cell suspensions was added to 200-μl microtiter plate wells containing 100 μl of an appropriate dilution of the test compounds. After 4 days incubation at 37° C., the cell cultures were examined for syncytium formation.
# [3] = system: HIV-1/B 101Glu; assay: Sensitivity of mutant HIV-1 strain in CEM cell cultures; assay type: cell-based; conditions: Table 5
# Protocol: as §1
# [4] = system: HIV-1/I(0.1) 103-Asn; assay: as above; assay type: cell-based; conditions: Table 5
# Protocol: as §1
# [5] = system: HIV-1/II(0.1) 100-Ile; assay: as above; assay type: cell-based; conditions: Table 5
# Protocol: as §1
# [6] = system: HIV-1/III(0.1) 103-Asn; assay: as above; assay type: cell-based; conditions: Table 5
# Protocol: as §1
# [7] = system: HIV-1/IV(0.1) 103-Thr; assay: as above; assay type: cell-based; conditions: Table 5
# Protocol: as §1
# [8] = system: HIV-1/Nev (106-Ala); assay: as above; assay type: cell-based; conditions: CEM cells, Table 1
# Protocol: as §1
# [9] = system: HIV-1/Pyr (181-Cys); assay: as above; assay type: cell-based; conditions: CEM cells, Table 1
# Protocol: as §1
# [10] = system: HIV-1/TIBO R82150 (100-Ile); assay: as above; assay type: cell-based; conditions: CEM cells, Table 1
# Protocol: as §1
# [11] = system: HIV-1/TIBO R82913 (103-Asn); assay: as above; assay type: cell-based; conditions: CEM cells, Table 1
# Protocol: as §1
# [12] = system: HIV-1/TSAO-m^3 T (138-Lys); assay: as above; assay type: cell-based; conditions: CEM cells, Table 1
# Protocol: as §1
# [13] = system: HIV-1/V(0.1) 101-Ile + 141-Glu; assay: as above; assay type: cell-based; conditions: Table 5
# Protocol: as §1
# [14] = system: HIV-1/V(0.5) 103-Asn; assay: as above; assay type: cell-based; conditions: Table 5
# Protocol: as §1
# [15] = system: HIV-1(IIIB); assay: Knock-out concentrations: breakthrough of HIV-1(IIIB)-induced cytopathicity in CEM cell cultures; assay type: cell-based
# Protocol: The culture medium consisted of RPMI 1640 containing 10% fetal bovine serum, 2 mM L-glutamine, and 0.075% NaHCO3. The multiplicity of the initial infection was ~1000 times the CCID50 (50% cell culture infective dose). Passages were performed every 3 to 4 days by adding 0.5 to 1.0 ml of the infected culture supernatant to 5 ml of a suspension containing 4×10^5 uninfected CEM cells per ml. Syncytium formation was used as a parameter of virus breakthrough in the cell cultures. In the drug combination experiments, the compounds were combined at the same initial concentrations as used for the two lowest concentrations in the single-drug experiments.
# The drug concentrations were kept constant throughout the whole time period of the experiment (10 subcultivations or 35 days). Then the drugs were removed from the cell cultures, and the cells were further subcultured for at least 5 additional passages.
structure (smiles),measurement,setting,value
CC(C)=CCN1Cc2cccc3[nH]c(=S)n(c23)C[C@@H]1C [Compound R82150],resistance of HIV-1 strains containing the 100 Leu→Ile mutation in their RT,[1],resistant
"Cc1ccnc2c1NC(=O)c1cccnc1N2C1CC1 [Nevirapine, reference compound]",EC50,"[2]; CEM cells, Table 1, read-out: 50% Effective Concentration",0.007 µg/mL
same,EC50,"[2]; HIV-1 (III8), Table 5, read-out: EC50",0.007 µg/mL
same,EC50,[3],> 2.5 µg/mL
same,EC50,[4],1.7 µg/mL
same,EC50,[5],≥ 5 µg/mL
same,EC50,[6],0.38 µg/mL
same,EC50,[7],2.7 µg/mL
same,50% Effective Concentration,[8],2.3 µg/mL
same,50% Effective Concentration,[9],2.30 µg/mL
same,50% Effective Concentration,[10],0.100 µg/mL
same,50% Effective Concentration,[11],1.5 µg/mL
same,50% Effective Concentration,[12],0.030 µg/mL
same,EC50,[13],0.24 µg/mL
same,EC50,[14],≥ 5 µg/mL
same,HIV-1-induced cytopathicity in cell culture,"[15]; 0.1 μg/ml, day 4 post infection",37.5 percentage of control
same,HIV-1-induced cytopathicity in cell culture,"[15]; 0.1 μg/ml, day 8 post infection",87.5 percentage of control
same,HIV-1-induced cytopathicity in cell culture,"[15]; 0.1 μg/ml, day 11 post infection",100 percentage of control
same,HIV-1-induced cytopathicity in cell culture,"[15]; 0.1 μg/ml, day 14 post infection",100 percentage of control
same,HIV-1-induced cytopathicity in cell culture,"[15]; 0.1 μg/ml, day 17 post infection",100 percentage of control
same,HIV-1-induced cytopathicity in cell culture,"[15]; 0.1 μg/ml, day 21 post infection",100 percentage of control
same,HIV-1-induced cytopathicity in cell culture,"[15]; 0.1 μg/ml, day 25 post infection",100 percentage of control
same,HIV-1-induced cytopathicity in cell culture,"[15]; 0.1 μg/ml, day 28 post infection",100 percentage of control
same,HIV-1-induced cytopathicity in cell culture,"[15]; 0.1 μg/ml, day 32 post infection",100 percentage of control
same,HIV-1-induced cytopathicity in cell culture,"[15]; 0.1 μg/ml, day 35 post infection",100 percentage of control
same,HIV-1-induced cytopathicity in cell culture,"[15]; 0.1 μg/ml, day 39 post infection, compound absent from day 35",100 percentage of control
same,HIV-1-induced cytopathicity in cell culture,"[15]; 0.1 μg/ml, day 42 post infection, compound absent from day 35",100 percentage of control
same,HIV-1-induced cytopathicity in cell culture,"[15]; 0.1 μg/ml, day 46 post infection, compound absent from day 35",100 percentage of control
same,HIV-1-induced cytopathicity in cell culture,"[15]; 0.1 μg/ml, day 49 post infection, compound absent from day 35",100 percentage of control
same,HIV-1-induced cytopathicity in cell culture,"[15]; 0.1 μg/ml, day 53 post infection, compound absent from day 35",100 percentage of control
same,HIV-1-induced cytopathicity in cell culture,"[15]; 0.5 μg/ml, day 4 post infection",6.25 percentage of control
same,HIV-1-induced cytopathicity in cell culture,"[15]; 0.5 μg/ml, day 8 post infection",25 percentage of control
same,HIV-1-induced cytopathicity in cell culture,"[15]; 0.5 μg/ml, day 11 post infection",50 percentage of control
same,HIV-1-induced cytopathicity in cell culture,"[15]; 0.5 μg/ml, day 14 post infection",100 percentage of control
same,HIV-1-induced cytopathicity in cell culture,"[15]; 0.5 μg/ml, day 17 post infection",100 percentage of control
same,HIV-1-induced cytopathicity in cell culture,"[15]; 0.5 μg/ml, day 21 post infection",100 percentage of control
same,HIV-1-induced cytopathicity in cell culture,"[15]; 0.5 μg/ml, day 25 post infection",100 percentage of control
same,HIV-1-induced cytopathicity in cell culture,"[15]; 0.5 μg/ml, day 28 post infection",100 percentage of control
same,HIV-1-induced cytopathicity in cell culture,"[15]; 0.5 μg/ml, day 32 post infection",100 percentage of control
same,HIV-1-induced cytopathicity in cell culture,"[15]; 0.5 μg/ml, day 35 post infection",100 percentage of control
same,HIV-1-induced cytopathicity in cell culture,"[15]; 0.5 μg/ml, day 39 post infection, compound absent from day 35",100 percentage of control
same,HIV-1-induced cytopathicity in cell culture,"[15]; 0.5 μg/ml, day 42 post infection, compound absent from day 35",100 percentage of control
same,HIV-1-induced cytopathicity in cell culture,"[15]; 0.5 μg/ml, day 46 post infection, compound absent from day 35",100 percentage of control
same,HIV-1-induced cytopathicity in cell culture,"[15]; 0.5 μg/ml, day 49 post infection, compound absent from day 35",100 percentage of control
same,HIV-1-induced cytopathicity in cell culture,"[15]; 0.5 μg/ml, day 53 post infection, compound absent from day 35",100 percentage of control
same,HIV-1-induced cytopathicity in cell culture,"[15]; 2.5 μg/ml, day 4 post infection",0 percentage of control
same,HIV-1-induced cytopathicity in cell culture,"[15]; 2.5 μg/ml, day 8 post infection",0 percentage of control
same,HIV-1-induced cytopathicity in cell culture,"[15]; 2.5 μg/ml, day 11 post infection",6.25 percentage of control
same,HIV-1-induced cytopathicity in cell culture,"[15]; 2.5 μg/ml, day 14 post infection",25 percentage of control
same,HIV-1-induced cytopathicity in cell culture,"[15]; 2.5 μg/ml, day 17 post infection",62.5 percentage of control
same,HIV-1-induced cytopathicity in cell culture,"[15]; 2.5 μg/ml, day 21 post infection",100 percentage of control
same,HIV-1-induced cytopathicity in cell culture,"[15]; 2.5 μg/ml, day 25 post infection",100 percentage of control
same,HIV-1-induced cytopathicity in cell culture,"[15]; 2.5 μg/ml, day 28 post infection",100 percentage of control
same,HIV-1-induced cytopathicity in cell culture,"[15]; 2.5 μg/ml, day 32 post infection",100 percentage of control
same,HIV-1-induced cytopathicity in cell culture,"[15]; 2.5 μg/ml, day 35 post infection",100 percentage of control
same,HIV-1-induced cytopathicity in cell culture,"[15]; 2.5 μg/ml, day 39 post infection, compound absent from day 35",100 percentage of control
same,HIV-1-induced cytopathicity in cell culture,"[15]; 2.5 μg/ml, day 42 post infection, compound absent from day 35",100 percentage of control
same,HIV-1-induced cytopathicity in cell culture,"[15]; 2.5 μg/ml, day 46 post infection, compound absent from day 35",100 percentage of control
same,HIV-1-induced cytopathicity in cell culture,"[15]; 2.5 μg/ml, day 49 post infection, compound absent from day 35",100 percentage of control
same,HIV-1-induced cytopathicity in cell culture,"[15]; 2.5 μg/ml, day 53 post infection, compound absent from day 35",100 percentage of control
